# Measured values published in patent US6417181B1, “Naphthyl-substituted and anilide-substituted sulfonamides” (Bayer Aktiengesellschaft, priority 1998, dated 2002).
# System: human cytomegalovirus (HCMV)
# Assay: anti-HCMV screening test: spread of the cytopathogenic effect in HELF cell cultures, 96-well microtitre plates
# Assay type: cell-based
# Conditions: Human betaherpesvirus 5; HCMV-infected HELF cells, CPE, Neutral Red staining
# Experimental: The anti-HCMV action was determined in a screening test system in 96-well microtitre plates with the aid of human embryonic lung fibroblast (HELF) cell cultures. The effect of the substances on the spread of the cytopathogenic effect was determined in comparison with the reference substance ganciclovir (Cymevene® sodium), a clinically approved anti-HCMV chemotherapeutic.
# The substances dissolved (50 mM) in DMSO (dimethyl sulphoxide) are investigated on microtitre plates (96-well) in duplicate determinations (4 substances/plate). Toxic and cytostatic substance effects are additionally detected at the same time. After the appropriate substance dilutions (1:2) on the microtitre plate, a suspension of 50-100 HCMV-infected HELF cells and […] non-infected HELF cells in Eagle's MEM with 10% foetal calf serum is added to each well, and the plates are incubated at 37° C. in a CO2 incubator for several days. After this time, the cell lawn in the sub-stance-free virus controls, starting from 50-100 infectious centres, is completely destroyed by the cytopathogenic effect of the HCMV (100% CPE). After staining with Neutral Red and fixing with formalin/methanol, the plates are assessed with the aid of a projection microscope (plaque-viewer).
row,SMILES,EC50 [nM]
1,CN(C)c1cccc2c(S(=O)(=O)Nc3ccc(NC(=O)C(C)(C)CF)cc3)cccc12 [Example 13],64
2,CN(C)c1cccc2c(S(=O)(=O)Nc3ccc(NC(=O)C(C)(C)CCl)cc3)cccc12 [Example 16],28
3,CN(C)c1cccc2c(S(=O)(=O)Nc3ccc(NC(=O)C(C)(CO)CO)cc3)cccc12 [Example 24],880
4,CN(C)c1cccc2c(S(=O)(=O)Nc3ccc(NC(=O)C(C)(C)CN)cc3)cccc12 [Example 25],640

# System: not given
# Assay: not given
# Conditions: not given
row,SMILES,melting point
1,CNc1ccc(S(=O)(=O)Nc2ccc(NC(=O)C(C)(C)C)cc2)c2ccccc12,248 °C (dec.)
2,CC(=O)Nc1ccc(S(=O)(=O)Nc2ccc(NC(=O)C(C)(C)C)cc2)c2ccccc12,> 240 °C
3,CC(C)(C)C(=O)Nc1ccc(NS(=O)(=O)c2ccc(N)c3ccccc23)cc1,216 °C
